Test results published in US20250082651A1, “GANAXOLONE FOR USE IN TREATING GENETIC EPILEPTIC DISORDERS” (Marinus Pharmaceuticals, Inc., priority 2017, published 2025).
“And” between values parts separate entries of the source, which are not always exact repeats. Identical values can stand only once.

Key:
[1] = human plasma following oral administration; cited from earlier work
[2] = test system: children with PCDH19 epilepsy; assay: Phase 2 open-label trial, PCDH19 cohort, seizure efficacy; assay type: in vivo, human
Source text: Example 3 concerns a Phase 2 Multicenter, Open-Label Proof-of-Concept Trial of ganaxolone (GNX) in cohorts of children having genetic epilepsies (PCDH19, CDKL5 LGS, and CSWS) (ClinicalTrials.gov Identifier: NCT02358538). There were 11 female children with PCDH19 epilepsy between 5-16 years old with a confirmed genetic mutation. There were 6 female and 1 male children with confirmed genetic mutations in the CDKL5 cohort. There were 10 children in the Lennox Gastaut Syndrome cohort. Two children with CSWS were enrolled into the study. The study was conducted with 12 weeks baseline, and up to 26 weeks of treatment followed by a 52 week open label treatment. The primary efficacy was the percentage change in seizure frequency per 28 days relative to baseline calculated using daily seizure diary. [Time Frame: 26 weeks]. Secondary Outcome Measures were: Clinician Global Impression of Change score as assessed by questionnaire. [Time Frame: 26 Weeks]; Patient Global Impression of Change score as assessed by questionnaire. [Time Frame: 26 Weeks]; Evaluation of safety and tolerability of open-label ganaxolone as adjunctive therapy for uncontrolled seizures in children with rare genetic epilepsies, based on adverse event log and other clinical safety assessments. [Time Frame: 26 weeks]; Responder rates [Time Frame: 26 weeks]; and Seizure free days [Time Frame: 26 weeks].
Following screening and baseline evaluations, consenting patients enrolled into a 26-week study during which investigators were allowed to flexibly dose ganaxolone up to a dose of 1,800 mg/day for patients whose body weight was >30 kg, or up to 63 mg/kg/day for patients whose body-weight was <30 kg. The primary efficacy measure is % change from baseline in the 28-day seizure frequency count. Safety and tolerability were within the secondary objectives of the study.
In this study, oral ganaxolone suspension or capsules were administered up to a total of 63 mg/kg/day (maximum 1800 mg/day) over 2-4 weeks. About six-eight titration steps are used, depending on the size of the patient. Children larger than 30 kg may take the ganaxolone capsules. The ganaxolone oral suspension was administered through an oral dosing syringe three times daily. The ganaxolone capsules were administered twice daily. The patients experience better absorption of the ganaxolone with meals (milk).
In total, 11 female subjects between 4 and 15 years of age with a confirmed PCDH19 genetic mutation and uncontrolled seizures despite antiepileptic pharmacotherapy were enrolled. Ganaxolone was studied as an adjunctive treatment, administered as either PO liquid suspension or capsules according to the titration schedule in Tables 7 and 8, for 26 weeks after establishing up to 12 weeks of baseline seizure frequency. Primary and secondary endpoints were the same as for the CDKL5 deficiency disorder cohort.
After establishing baseline seizure frequency, qualifying subjects entered the study and were treated with open-label ganaxolone oral suspension or ganaxolone capsules at doses up to a maximum of 1800 mg/day for up to 6 months. Maximum study participation was 94 weeks: a screening period up to 12 weeks to establish baseline seizure frequency, up to 26 weeks of treatment, a 52 week extension for subjects who benefited from ganaxolone treatment, and up to 4 weeks of down titration period. […] Refractive cases of LGS or CSWS that had prior response to steroid or ACTH could also have been enrolled.
Ganaxolone oral suspension was administered through an oral dosing syringe by parent or legal guardian 3 times daily (TID), following the morning, noon, and evening meal or snack. Each dose was separated by a minimum of 4 hours and a maximum of 8 hours. A missed dose of ganaxolone could have been taken up to 4 hours before the next scheduled dose; otherwise, the missed dose was not to be given. […]

[3] = In vitro haemolysis and human plasma compatibility
[4] = Plasma concentrations in paediatric patients after oral dosing; assay type: in vivo, human; details: for Plasma concentrations: oral with food, 1 to 13 year old epilepsy patients
[5] = test system: subjects with focal onset seizure disorder; details: post hoc, subjects taking 3 or more concomitant AEDs, p=0.02; cited from earlier work
[6] = target: CYP3A4 (Homo sapiens, UniProt P08684); assay: In vitro clearance
[7] = test system: rats or mice; assay: Reproductive/developmental toxicity and mutagenicity; assay type: in vivo
[8] = test system: rats; assay: Oral and IV single- and repeat-dose toxicology studies; assay type: in vivo, rat
[9] = test system: dogs; assay: 1-year (chronic oral) dog toxicity study; assay type: in vivo
Source text: There was a physiologically normal shortening of the PR and QT interval in response to the higher heart rate. There was no effect on QRS duration or QTc interval.
In the oral dosing programme, a therapeutic index from non-human NOAEL levels to the adult partial-onset seizure epilepsy and the pharmacokinetics study is approximately 2 to 3-fold in dogs (sedation).

[10] = individual PCDH19 subjects 1-11
[11] = preliminary data, 11 PCDH19 patients
[12] = oral suspension formulation, 3 to 18 mg/kg TID, patients aged 4 to 41 months

CYP3A4, sequence (P08684 whole entry): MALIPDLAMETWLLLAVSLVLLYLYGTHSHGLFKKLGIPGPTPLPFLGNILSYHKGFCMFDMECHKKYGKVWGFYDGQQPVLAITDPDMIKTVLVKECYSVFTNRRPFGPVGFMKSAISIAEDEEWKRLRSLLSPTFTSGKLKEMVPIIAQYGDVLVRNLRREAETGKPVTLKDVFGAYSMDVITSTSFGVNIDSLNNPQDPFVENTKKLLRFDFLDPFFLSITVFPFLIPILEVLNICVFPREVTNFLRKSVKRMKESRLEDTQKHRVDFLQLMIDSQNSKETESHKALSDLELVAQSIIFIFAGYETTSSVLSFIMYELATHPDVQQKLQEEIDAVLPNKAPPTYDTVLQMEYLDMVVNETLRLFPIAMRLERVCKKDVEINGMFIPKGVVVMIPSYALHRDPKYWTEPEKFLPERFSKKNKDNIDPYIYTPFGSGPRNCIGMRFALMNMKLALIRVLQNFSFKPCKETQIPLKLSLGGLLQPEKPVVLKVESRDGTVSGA

Compound: CC(=O)[C@H]1CC[C@H]2[C@@H]3CC[C@H]4C[C@](C)(O)CC[C@]4(C)[C@H]3CC[C@]12C [Ganaxolone, 3α-hydroxy-3β-methyl-5α-pregnan-20-one]
- Half-life [1]: approximately 20 hours
- Median change (decrease) in 28-day seizure frequency from baseline ([2]; PCDH19, ITT / all-comers n=11, 4 patients LOCF): 26%
- Median change (increase) from baseline in seizure-free days ([2]; PCDH19, ITT n=11): 14%
- Median % change seizure rates, biomarker-negative subjects ([2]; PCDH19, n=4, Allo-S>2,500 pg mL^−1, retrospective): 247%
- Seizure frequency at 6 months compared to baseline, biomarker-positive group ([2]; PCDH19, p=0.02, Wilcoxon): significantly improved
- Seizure frequency at 6 months compared to baseline, biomarker-negative (high Allo-S) group ([2]; PCDH19, p=0.25, Wilcoxon): did not improve
- 28-day seizure frequency, sum of individual seizures and clusters, post-baseline 26-week open-label period, Mean (SD) ([2]; PCDH19 N=11, MITT): 19.85
- 28-day seizure frequency, sum of individual seizures and clusters, post-baseline 26-week open-label period, Median ([2]; PCDH19 N=11, MITT): 5.42
- 28-day seizure frequency, sum of individual seizures and clusters, post-baseline through Month 3 (Day 91), Mean (SD) ([2]; PCDH19 N=11, MITT): 19.82
- 28-day seizure frequency, sum of individual seizures and clusters, post-baseline through Month 3 (Day 91), Median ([2]; PCDH19 N=11, MITT): 7.78
- Percent change from baseline (at Day 91), 28-day seizure frequency, sum of individual seizures and clusters, Mean (SD) ([2]; PCDH19 N=11, MITT): 52.83%
- Percent change from baseline (at Day 91), 28-day seizure frequency, sum of individual seizures and clusters, Median ([2]; PCDH19 N=11, MITT): 25.98% and −25.98%
- Percent change from baseline (at Week 26), 28-day seizure frequency, sum of individual seizures and clusters, Mean (SD) ([2]; PCDH19 N=11, MITT): 46.36%
- Percent change from baseline (at Week 26), 28-day seizure frequency, sum of individual seizures and clusters, Median ([2]; PCDH19 N=11, MITT): 24.59% and −24.59%
- % change seizure rate-12 month, Mean ([2]; PCDH19 cohort, N=7): 51.34%
- % change seizure rate-12 month, Median ([2]; PCDH19 cohort, N=7): −8.57%
- Post-baseline 28-day seizure rate-12 month, Mean ([2]; PCDH19 cohort, N=7): 24.25
- Post-baseline 28-day seizure rate-12 month, Median ([2]; PCDH19 cohort, N=7): 19.44
- % change seizure rate-3 month, Mean ([2]; PCDH19 cohort, N=11): 105.59%
- % change seizure rate-3 month, Median ([2]; PCDH19 cohort, N=11): −7.37%
- % change seizure rate-6 month, Mean ([2]; PCDH19 cohort, N=11): 103.72%
- % change seizure rate-6 month, Median ([2]; PCDH19 cohort, N=11): −25.68%
- Post-baseline 28-day seizure rate-3-month, Mean ([2]; PCDH19 cohort, N=11): 84.51
- Post-baseline 28-day seizure rate-3-month, Median ([2]; PCDH19 cohort, N=11): 15.81
- Post-baseline 28-day seizure rate-6 month, Mean ([2]; PCDH19 cohort, N=11): 84.41
- Post-baseline 28-day seizure rate-6 month, Median ([2]; PCDH19 cohort, N=11): 15.81
- Mean percent change in 28-day total seizure frequency from baseline to Week 26 ([2]; PCDH19 cohort, PP Population): 60.99%
- Median percent change in 28-day total seizure frequency from baseline to Week 26 ([2]; PCDH19 cohort, PP Population): 22.11%
- Clinical global impression of improvement: much improved ([2]; PCDH19 cohort, end of Week 26): 2 subjects
- Clinical global impression of improvement: very much improved ([2]; PCDH19 cohort, end of Week 26): 2 subjects
- 28-day individual seizure frequency, post-baseline 26-Week open-label period, Mean (SD) ([2]; PCDH19 n=11, MITT): 7.28
- 28-day individual seizure frequency, post-baseline 26-Week open-label period, Median ([2]; PCDH19 n=11, MITT): 2.26
- 28-day individual seizure frequency, post-baseline through Month 3 (Day 91), Mean (SD) ([2]; PCDH19 n=11, MITT): 7.29
- 28-day individual seizure frequency, post-baseline through Month 3 (Day 91), Median ([2]; PCDH19 n=11, MITT): 2.49
- Percent change from baseline (at Day 91), 28-day individual seizure frequency, Mean (SD) ([2]; PCDH19 n=11, MITT): −16.92%
- Percent change from baseline (at Day 91), 28-day individual seizure frequency, Median ([2]; PCDH19 n=11, MITT): −38.48%
- Percent change from baseline (at Week 26), 28-day individual seizure frequency, Mean (SD) ([2]; PCDH19 n=11, MITT): −23.95%
- Percent change from baseline (at Week 26), 28-day individual seizure frequency, Median ([2]; PCDH19 n=11, MITT): −34.48%
- Median percent reduction in seizures ([2]; children with PCDH19 disorder): 34%
- 28-day seizure free days % change at 3 months [2, 10]: 8% and 18% (2×) and 49% and −7% and −19% and −89% and 23% and 39% and 880% and 4%
- 28-day seizure free days % change at 6 months [2, 10]: 7% and 27% and 14% and 32% and −3% and 890% and 5%
- 28-day seizure rate % change at 3 months [2, 10]: −33.29% and 31.36% and −7.37% and −4.38% and 106.67% and 353.25% and 1020.50% and −100.00% and −78.83% and −74.17% and −52.30%
- 28-day seizure rate % change at 6 months [2, 10]: −33.22% and −25.68% and −5.26% and −2.56% and 140.00% and early term (2×) and rash and sz returned and −73.47% and −53.85%
- Patients achieving greater than 50% seizure reduction that persisted for greater than 6 months [2, 11]: 4 patients
- Patients with some degree of seizure reduction [2, 11]: 9 of 11
- Compatibility with human plasma [3]: compatible with human plasma
- Haemolysis [3]: did not cause haemolysis
- Plasma concentrations ([4]; 1 mg/kg TID): up to 5.78 ng/mL
- Trough concentrations ([4]; 12 mg/kg TID, humans about 0.6 to about 7 years old): at least 38.5±37.4 ng/mL
- Plasma concentrations ([4]; 12 mg/kg TID): 10.3 to 16.1 ng/mL
- concentration at 4 weeks ([4]; human, plasma, oral, β-cyclodextrin formulation with food, 6 mg/kg BID to 12 mg/kg TID, 5-15 year old, read-out: Plasma concentrations at week 4): ≤ 22.1 ng/mL
- concentration at 8 weeks ([4]; human, plasma, oral, β-cyclodextrin formulation with food, 6 mg/kg BID to 12 mg/kg TID, 5-15 year old, read-out: Plasma concentrations at week 8): 5.7 to 43.7 ng/mL
- Cmax [4, 12]: about 123 ng/mL
- Trough concentration [4, 12]: about 23 ng/mL
- Greater reduction in median seizure frequency than placebo [5]: 20%
- Enzyme driving clearance [6]: driven mainly by CYP3A4
- Mutagenicity ([7]; in vivo): No potential for mutagenicity
- Effects on fertility and early embryonic development ([7]; rats): no effects
- Teratogenicity ([7]; rats or mice): not teratogenic
- Most common effect in toxicology studies ([8]; oral and IV programmes): dose-related sedation
- Findings correlated to hepatic enzyme induction ([8]; rats, 6-month study, more pronounced in females): increased liver weights and dose related hepatocellular hypertrophy
- Effect on QRS duration or QTc ([9]; 1-year dog study): no treatment effect
- ECG finding ([9]; 1-year dog study, after 3 months of dosing, 4 animals, >190 bpm): transient sinus tachycardia
- Cmax ([9]; 1-year dog toxicity study): > 1500 ng/mL
- Findings at mean Cmax greater than 1500 ng/mL ([9]; chronic oral toxicity study in dogs, 10 and 15 mg/kg/day): increased weight and total plasma cholesterol levels
- Therapeutic index from non-human NOAEL levels ([9]; oral dosing programme, dogs (sedation)): 2 to 3 fold
